Data: patent US12522576B2, “Polymorphs of D9-THC naphthoylester” (priority 2019, dated 2026)
Converted amounts (≈) assume the structure as drawn. “Also recorded” adds a separate entry of the source. Where two headings read alike, the source gives them in different places.

How the values were obtained:
[1] = Competitive ripening (relative thermodynamic stability of non-solvated forms); conditions: for Nature (thermodynamic stability of crystal form): Table 6 summary
[2] = D9 solubility in the liquors at isolation temperature; type: physicochemical; conditions: organic solvent or mixture, thermodynamic from solid
Experimental: At the end of each experiment, suspensions were equilibrated at the isolation temperature (25 or 5° C.) for at least 18 hours and the solids and liquors separated by centrifugation at the isolation temperature. The Exo/D9/D8 ratio (Exo-D9-THC-naphthoylester impurity/D9-THC-naphthoylester/D8-THC-naphthoylester) was determined in both the isolated solids and the liquors, from which the % Exo-depletion in the isolated solids was calculated. Several solids were also isolated at elevated temperatures to assess the impact of the isolation temperature on Exo-impurity depletion.
In addition, the solubility of D9 in the liquors was determined in most of the explored solvents and used to estimate the yield.

[3] = Experiment No. 10, n-BuOH, 25 °C
[4] = Experiment No. 14, Toluene/EtOH (1:9), 5 °C
[5] = Experiment No. 16, n-BuOH, 5 °C

CCCCCc1cc(OC(=O)c2ccc3ccccc3c2)c2c(c1)OC(C)(C)[C@@H]1CCC(C)=C[C@@H]21 [G, H]
Form Isolated 1-3 d ([1]; Experiment No. 5, Toluene/EtOH (1:9), 50 °C): H/G(tr) | Form Isolated 1-3 d ([1]; Experiment No. 6, n-BuOH, 50 °C): H/G(tr) | Form Isolated 1-3 d ([1]; Experiment No. 11, Toluene/EtOH (1:9), 25 °C): G/H | Form Isolated 1-3 d ([1]; Experiment No. 12, Heptane, 25 °C): H/G

CCCCCc1cc(OC(=O)c2ccc3ccccc3c2)c2c(c1)OC(C)(C)[C@@H]1CCC(C)=C[C@@H]21 [A, B, C, E, G]
Form Isolated 1-3 d ([1]; Experiment No. 7, Acetone/MeOH (1:3), 25 °C): E/G | Form Isolated 1-3 d ([1]; Experiment No. 8, Toluene/EtOH (1:9), 25 °C): G/E | Form Isolated 1-3 d [1, 3]: B/G | Form Isolated 4-9 d [1, 3]: B/G | Form Isolated 4-9 d [1, 4]: B/G | Form Isolated 26-29 d [1, 4]: G/B(tr) | Form Isolated 4-9 d [1, 5]: B/G | Form Isolated 26-29 d [1, 5]: B/G

CCCCCc1cc(OC(=O)c2ccc3ccccc3c2)c2c(c1)OC(C)(C)[C@@H]1CCC(C)=C[C@@H]21 [E, G]
Form Isolated 4-9 d ([1]; Experiment No. 15, Heptane, 5 °C): G/B

CCCCCc1cc(OC(=O)c2ccc3ccccc3c2)c2c(c1)OC(C)(C)[C@@H]1CCC(C)=C[C@@H]21 [Form A, (6aR,10aR)-6a,7,8,10a-tetrahydro-6,6,9-trimethyl-3-pentyl-6H-dibenzo[b,d]pyran-1-yl ester]
Nature (thermodynamic stability of crystal form) [1]: Metastable

CCCCCc1cc(OC(=O)c2ccc3ccccc3c2)c2c(c1)OC(C)(C)[C@@H]1CCC(C)=C[C@@H]21 [B, G, H]
Form Isolated 12 d ([1]; Experiment No. 17, Toluene/EtOH (1:9), 5 °C): G/H | Form Isolated 12 d ([1]; Experiment No. 18, Heptane, 5 °C): H/B(tr) | Form Isolated 12 d ([1]; Experiment No. 19, n-BuOH, 5 °C): B/H

CCCCCc1cc(OC(=O)c2ccc3ccccc3c2)c2c(c1)OC(C)(C)[C@@H]1CCC(C)=C[C@@H]21 [Form G, (6aR,10aR)-6a,7,8,10a-tetrahydro-6,6,9-trimethyl-3-pentyl-6H-dibenzo[b,d]pyran-1-yl ester]
Nature (thermodynamic stability of crystal form) [1]: Metastable | solubility ([2]; crystallisation liquors over suspended solid, 25 °C, batch 5, Anisole/MeOH (1:9), seed E/G, heat T 50, isolation T 25, 9.4 mL/g, SP 3): 8.1 mg/mL (≈ 17.3 mM) | solubility ([2]; crystallisation liquors over suspended solid, 25 °C, batch 5, Cyclohexanone/MeOH (1:3), seed G, heat T 40, isolation T 25, 9.4 mL/g, SP 3): 34.4 mg/mL (≈ 73.4 mM) | solubility ([2]; crystallisation liquors over suspended solid, 25 °C, batch 5, EtOAc/EtOH (1:9), seed G/H, heat T 55, isolation T 25, 5.0 mL/g, SP 15, Exp 53): 17.8 mg/mL (≈ 38 mM) | solubility ([2]; crystallisation liquors over suspended solid, 25 °C, batch 5, EtOAc/MeOH (1:2), seed H, heat T 55, isolation T 25, 8.0 mL/g, SP 21, Exp 50): 18.5 mg/mL (≈ 39.5 mM) | solubility ([2]; crystallisation liquors over suspended solid, 25 °C, batch 5, EtOAc/MeOH (1:3), seed G/H, heat T 55, isolation T 25, 10.0 mL/g, SP 15, Exp 55): 9.7 mg/mL (≈ 20.7 mM) | solubility ([2]; crystallisation liquors over suspended solid, 25 °C, batch 5, MEK/MeOH (3:7), seed G/H, heat T 55, isolation T 25, 5.0 mL/g, SP 15, Exp 51): 23.2 mg/mL (≈ 49.5 mM) | solubility ([2]; crystallisation liquors over suspended solid, 25 °C, batch 5, Toluene/MeOH (1:9), seed E/G, heat T 50, isolation T 25, 9.6 mL/g, SP 3): 6.5 mg/mL (≈ 13.9 mM) | solubility ([2]; crystallisation liquors over suspended solid, 25 °C, batch 5, Toluene/MeOH (5:95), seed H, heat T 50, isolation T 25, 10.0 mL/g, SP 20, Exp 44): 3.4 mg/mL (≈ 7.26 mM) | solubility ([2]; crystallisation liquors over suspended solid, 25 °C, batch 5, p-Xylene/MeOH (1:9), seed E/G, heat T 50, isolation T 25, 19.5 mL/g, SP 3): 7.5 mg/mL (≈ 16 mM) | solubility ([2]; liquors of the equilibrated crystallisation suspension, 25 °C, batch 5, Cyclohexanone/MeOH (1:3), seed G, heat T 25, isolation T 25, 30.0 mL/g, SP 7): 29.3 mg/mL (≈ 62.5 mM)

CCCCCc1cc(OC(=O)c2ccc3ccccc3c2)c2c(c1)OC(C)(C)[C@@H]1CCC(C)=C[C@@H]21 [Form E, (6aR,10aR)-6a,7,8,10a-tetrahydro-6,6,9-trimethyl-3-pentyl-6H-dibenzo[b,d]pyran-1-yl ester]
Nature (thermodynamic stability of crystal form) [1]: Metastable | solubility ([2]; crystallisation liquors over suspended solid, 25 °C, batch 5, Nitromethane, seed G, heat T 40, isolation T 25, 32.6 mL/g, SP 3): 7 mg/mL (≈ 14.9 mM)

CCCCCc1cc(OC(=O)c2ccc3ccccc3c2)c2c(c1)OC(C)(C)[C@@H]1CCC(C)=C[C@@H]21 [Form H, (6aR,10aR)-6a,7,8,10a-tetrahydro-6,6,9-trimethyl-3-pentyl-6H-dibenzo[b,d]pyran-1-yl ester]
Relative thermodynamic stability ([1]; at 5° C., ripening incomplete within 29 days): likely the most-stable form | Relative thermodynamic stability ([1]; between 25-60° C., non-solvate forming solvents): most stable non-solvated crystal form; also recorded: thermodynamically most-stable form | solubility ([2]; crystallisation liquors over suspended solid, 5 °C, batch 5, Toluene/MeOH (3:7), seed G, heat T 25, isolation T 5, 10.0 mL/g, SP 11): 71.4 mg/mL (≈ 152 mM) | solubility ([2]; crystallisation liquors over suspended solid, 25 °C, batch 5, EtOAC/EtOH (2:8), seed H, heat T 50, isolation T 25, 8.0 mL/g, SP 17, Exp 47): 36.2 mg/mL (≈ 77.2 mM) | solubility ([2]; crystallisation liquors over suspended solid, 25 °C, batch 5, Toluene/EtOH (1:9), seed G/H, heat T 55, isolation T 25, 9.9 mL/g, SP 16, Exp 46): 11.1 mg/mL (≈ 23.7 mM) | solubility ([2]; crystallisation liquors over suspended solid, 25 °C, batch 5, Toluene/EtOH (1:9), seed H, heat T 40, isolation T 25, 10.0 mL/g, SP 19, Exp 54): 19.6 mg/mL (≈ 41.8 mM) | solubility ([2]; crystallisation liquors over suspended solid, 25 °C, batch 5, Toluene/EtOH (2:8), seed H, heat T 25, isolation T 25, 5.0 mL/g, SP 18, Exp 52): 36.2 mg/mL (≈ 77.2 mM) | solubility ([2]; crystallisation liquors over suspended solid, 25 °C, batch 5, Toluene/MeOH (1:9), seed H, heat T 50, isolation T 25, 15.0 mL/g, SP 17, Exp 48): 6.8 mg/mL (≈ 14.5 mM) | solubility ([2]; crystallisation liquors over suspended solid, 25 °C, batch 5, Toluene/MeOH (2:8), seed H, heat T 50, isolation T 25, 6.0 mL/g, SP 17, Exp 41): 25.1 mg/mL (≈ 53.6 mM) | solubility ([2]; crystallisation liquors over suspended solid, 25 °C, batch 5, Toluene/MeOH (3:7), seed G, heat T 25, isolation T 25, 5.5 mL/g, SP 7): 69.9 mg/mL (≈ 149 mM) | solubility ([2]; crystallisation liquors over suspended solid, 25 °C, batch 5, Toluene/MeOH (3:7), seed G, heat T 25, isolation T 25, 8.0 mL/g, SP 7): 80.2 mg/mL (≈ 171 mM) | solubility ([2]; crystallisation liquors over suspended solid, 25 °C, batch 5, Toluene/MeOH (3:7), seed G, heat T 25, isolation T 25, 10.0 mL/g, SP 7): 64.7 mg/mL (≈ 138 mM) | solubility ([2]; liquors of the equilibrated crystallisation suspension, 5 °C, Toluene/MeOH (3:7), isolation 5 °C, SP 11, 10.0 mL/g, read-out: D9 Solubility at Isolation T): 71.4 mg/mL (≈ 152 mM) | solubility ([2]; liquors of the equilibrated crystallisation suspension, 25 °C, EtOAC/EtOH (2:8), isolation 25 °C, SP 17, 8.0 mL/g, read-out: D9 Solubility at Isolation T): 36.2 mg/mL (≈ 77.2 mM) | solubility ([2]; liquors of the equilibrated crystallisation suspension, 25 °C, EtOAc/MeOH (1:3), isolation 25 °C, SP 21, 10.0 mL/g, read-out: D9 Solubility at Isolation T): 8.9 mg/mL (≈ 19 mM) | solubility ([2]; liquors of the equilibrated crystallisation suspension, 25 °C, Toluene/EtOH (1:9), isolation 25 °C, SP 16, 9.9 mL/g, read-out: D9 Solubility at Isolation T): 11.1 mg/mL (≈ 23.7 mM) | solubility ([2]; liquors of the equilibrated crystallisation suspension, 25 °C, Toluene/EtOH (1:9), isolation 25 °C, SP 19, 10.0 mL/g, read-out: D9 Solubility at Isolation T): 19.6 mg/mL (≈ 41.8 mM) | solubility ([2]; liquors of the equilibrated crystallisation suspension, 25 °C, Toluene/EtOH (2:8), isolation 25 °C, SP 18, 5.0 mL/g, read-out: D9 Solubility at Isolation T): 36.2 mg/mL (≈ 77.2 mM) | solubility ([2]; liquors of the equilibrated crystallisation suspension, 25 °C, Toluene/MeOH (1:9), isolation 25 °C, SP 17, 15.0 mL/g, read-out: D9 Solubility at Isolation T): 6.8 mg/mL (≈ 14.5 mM) | solubility ([2]; liquors of the equilibrated crystallisation suspension, 25 °C, Toluene/MeOH (2:8), isolation 25 °C, SP 17, 6.0 mL/g, read-out: D9 Solubility at Isolation T): 25.1 mg/mL (≈ 53.6 mM) | solubility ([2]; liquors of the equilibrated crystallisation suspension, 25 °C, Toluene/MeOH (3:7), isolation 25 °C, SP 7, 5.5 mL/g, read-out: D9 Solubility at Isolation T): 69.9 mg/mL (≈ 149 mM) | solubility ([2]; liquors of the equilibrated crystallisation suspension, 25 °C, Toluene/MeOH (3:7), isolation 25 °C, SP 7, 8.0 mL/g, read-out: D9 Solubility at Isolation T): 80.2 mg/mL (≈ 171 mM) | solubility ([2]; liquors of the equilibrated crystallisation suspension, 25 °C, Toluene/MeOH (3:7), isolation 25 °C, SP 7, 10.0 mL/g, read-out: D9 Solubility at Isolation T): 64.7 mg/mL (≈ 138 mM) | solubility ([2]; liquors of the equilibrated crystallisation suspension, 25 °C, batch 5, EtOAc/MeOH (1:3), seed H, heat T 55, isolation T 25, 10.0 mL/g, SP 21, Exp 34): 8.9 mg/mL (≈ 19 mM)
